Measurements: patent US6995175B2, “Chemical derivatives and their application as antitelomerase agent” (Aventis Pharma S.A., priority 2001, dated 2006)
Where a name gives a salt, the structure may show the parent alone.

What was measured:
[1] = system: G-quadruplex oligonucleotide GGGTTAGGGTTAGGGTTAGGG (3.5 repeats of the human telomeric unit); experiment: G-quadruplex stabilization, fluorescence Tm (FAM+DABCYL oligonucleotide); assay type: binding; settings: increase in Tm vs reference without product (44° C. in LiCl buffer), 0.2 μM oligonucleotide, 0.1 M LiCl, 10 mM cacodylate pH 7.6
Source text: The G-quadruplex stabilizing activity may be determined by a method using the formation of a complex with fluorescein of which the experimental protocol is described below.
All the oligonucleotides, modified or otherwise, were synthesized by Eurogentec S A, Seraing, Belgium. The oligonucleotide FAM+DABCYL carries the catalogue reference OL-0371-0802. It has the sequence: […] corresponding to 3.5 repeats of the human telomeric unit (strand rich in G). The fluorescein is attached to the 5′ end, the DABCYL to the 3′ end, by the chemical arms described by Eurogentec. The concentration of the samples is checked by spectrophotometry, recording the absorbance spectrum between 220 and 700 nm and using the molar extinction coefficient provided by the supplier.
All the experiments were carried out in a 10 mM sodium cacodylate buffer pH 7.6 containing 0.1 M lithium chloride (or sodium chloride). The absence of fluorescent contamination in the buffer was checked beforehand. The fluorescent oligonucleotide is added at the final concentration of 0.2 μM.
All the measurements of fluorescence were carried out on a Spex Fluorolog DM1B apparatus, using an excitation line width of 1.8 nm and an emission line width of 4.5 nm. The samples are placed in a microquartz cuvette of 0.2×1 cm. The temperature of the sample is controlled by an external water bath. The oligonucleotide alone was analyzed at 20, 30, 40, 50, 60, 70 and 80° C. The emission spectra are recorded using an excitation wavelength of 470 nm. The excitation spectra are recorded using either 515 nm or 588 nm as emission wavelength. The spectra are corrected for the response of the instrument by reference curves. A high extinction (80–90%) of the fluorescence of fluorescein at room temperature is observed, in agreement with an intramolecular folding of the oligonucleotide at 20° C. in the form of a G-quadruplex, which induces juxtaposition of its 5′ and 3′ ends which are respectively linked to fluorescein and to DABCYL. This juxtaposition causes an already-described phenomenon of extinction of fluorescence which is used for “Molecular Beacons”.
An oligonucleotide stock solution at the strand concentration of 0.2 μM in 0.1 M LiCl, 10 mM cacodylate buffer, pH 7.6, is prepared beforehand, heated briefly at 90° C. and slowly cooled to 20° C., and then distributed in aliquots of 600 μl in the fluorescence cuvettes. […] The samples are then allowed to incubate for at least 1 hour at 20° C. before each measurement. The use of longer incubation times (up to 24 hours) has no influence on the result obtained.
Each experiment allows the measurement of only one sample. The latter is first incubated at an initial temperature of 20° C., heated to 80° C. over 38 minutes, left for 5 minutes at 80° C. and then cooled to 20° C. over 62 minutes. During this time, the fluorescence is measured simultaneously at two emission wavelengths (515 nm and 588 nm) using 470 nm as excitation wavelength. A measurement is carried out every 30 seconds. The temperature of the water bath is recorded in parallel, and the fluorescence profile as a function of the temperature is reconstituted from these values. The fluorescence profiles are then normalized between 20° C. and 80° C., and the temperature for which the intensity of emission at 515 nm is the mean of those at high and low temperature is called Tm. Under these conditions, the Tm of the reference sample without addition of product is 44° C. in a lithium chloride buffer. This temperature is increased to more than 55° C. in a sodium chloride buffer. The addition of a G-quadruplex stabilizing compound induces an increase in the Tm. This increase is judged to be significant if it is greater than 3°.

[2] = system: human telomerase (HL60 cell extract); experiment: Inhibition of telomerase, TRAP test (TS extension and PCR with HL60 extract); assay type: biochemical; settings: telomerase extract from HL60 cells
Procedure: The extract is stored at -80° C.

| IC50 [2] | Compound | G4 Tm (G4 stabilization differential in ° C., product tested at 1 µM) [1] |
| --- | --- | --- |
| 1300 nM | Cc1cc(N(C)C)c2cc(NC(=O)Cc3ccc(CC(=O)Nc4ccc5nc(C)cc(N(C)C)c5c4)cc3)ccc2n1 [Example 21, N,N′-bis(4-dimethylamino-2-methylquinolin-6-yl)-1,4-phenylenediacetamide] | 3 °C |
| 550 nM | CSc1c(Cl)nc(Nc2ccc3nc(C)cc(N)c3c2)nc1Nc1ccc2nc(C)cc(N)c2c1 [Example 16, N,N′-bis(4-amino-2-methyl-6-quinolyl)-2,4-diamino-6-chloro-5-methylsulfanylpyrimidine] | 5 °C |
| 200 nM | Cc1cc(N)c2cc(NC(=O)c3cccc(C(=O)Nc4ccc5nc(C)cc(N)c5c4)n3)ccc2n1 [Example 23, bis[(4-amino-2-methylquinolin-6-yl)-amido]-2,6-pyridinedicarboxylic acid hydrochloride] | 23 °C |
| 500 nM | Cc1cc(N(C)C)c2cc(NC(=O)c3cccc(C(=O)Nc4ccc5nc(C)cc(N(C)C)c5c4)n3)ccc2n1 [Example 24, bis-[(4-dimethylamino-2-methylquinolin-6-yl)-amido]-2,6-pyridinedicarboxylic acid hydrochloride] | 15.6 °C |
| 300 nM | Cc1cc(N)c2cc(NC(=O)c3ccc(C(=O)Nc4ccc5nc(C)cc(N)c5c4)nc3)ccc2n1.Cl [Example 17, bis[(4-amino-2-methylquinolin-6-yl)amido]-2,5-pyridinedicarboxylic acid Hydrochloride] | 5.5 °C |
| 1100 nM | Cc1cc(N(C)C)c2cc(NC(=O)c3ccnc(C(=O)Nc4ccc5nc(C)cc(N(C)C)c5c4)c3)ccc2n1 [Example 20, bis[(4-dimethylamino-2-methylquinolin-6-yl)-amido]-2,4-pyridinedicarboxylic acid] |  |
| 2900 nM | Cc1cc(N(C)C)c2cc(NCc3ccc(C(=O)Nc4ccc5nc(C)cc(N(C)C)c5c4)nc3)ccc2n1 [Example 22, [(4-dimethylamino-2-methylquinolin-6-yl)-amido]-5-[(4-dimethylamino-2-methylquinolin-6-ylamino)methyl]pyridine-2-carboxylic acid Hydrochloride] | 4 °C |
| 1200 nM | Cc1cc(N(C)C)c2cc(NC(=O)/C=C/C(=O)Nc3ccc4nc(C)cc(N(C)C)c4c3)ccc2n1 [Example 18, N,N′-bis(4-dimethylamino-2-methylquinolin-6-yl)but-2-enediamide] | 9 °C |
| 600 nM | Cc1cc(N(C)C)c2cc(NC(=O)c3ccc(C(=O)Nc4ccc5nc(C)cc(N(C)C)c5c4)nc3)ccc2n1 [Example 19, bis[(4-dimethylamino-2-methylquinolin-6-yl)-amido]-2,5-pyridinedicarboxylic acid] | 16 °C |

The next lines start with the compound.

| Compound | IC50 [2] | G4 Tm (G4 stabilization differential in ° C., product tested at 1 µM) [1] |
| --- | --- | --- |
| Cc1cc(N)c2cc(NC(=O)c3ccc(C(=O)Nc4ccc5nc(C)cc(N)c5c4)s3)ccc2n1 [Example 3, bis[(4-amino-2-methylquinolin-6-yl)amido]-2,5-thiophenedicarboxylic acid] | 950 nM | 1.7 °C |
| Cc1cc(N(C)C)c2cc(NC(=O)Nc3ccc(NC(=O)Nc4ccc5nc(C)cc(N(C)C)c5c4)cc3)ccc2n1 [Example 9, 1-(4-dimethylamino-2-methylquinolin-6-yl)-3-{4-[3-(4-dimethylamino-2-methylquinolin-6-yl)ureido]phenyl}urea] | 800 nM | 11.5 °C |
| COc1cc(C)nc2ccc(NC(=O)c3ccc(C(=O)Nc4ccc5nc(C)cc(OC)c5c4)s3)cc12 [Example 1, bis[(4-methoxy-2-methylquinolin-6-yl)amido]-2,5-thiophenedicarboxylic acid] | 1700 nM | 2.5 °C |
| Cc1cc(N(C)C)c2cc(NC(=O)c3ccc(C(=O)Nc4ccc5nc(C)cc(N(C)C)c5c4)s3)ccc2n1 [Example 2, bis[(4-dimethylamino-2-methylquinolin-6-yl)amido]-2,5-thiophenedicarboxylic acid] | 900 nM | 10.5 °C |
| Cc1cc(N(C)C)c2cc(NC(=O)c3ccc(C(=O)Nc4ccc5nc(C)cc(N(C)C)c5c4)cc3)ccc2n1 [Example 7, N,N′-bis(4-dimethylamino-2-methylquinolin-6-yl)-terephthalamide] | 1500 nM | 2 °C |
| COc1cc(C)nc2ccc(NC(=O)Nc3cccc(NC(=O)Nc4ccc5nc(C)cc(OC)c5c4)c3)cc12 [Example 8, 1-(4-methoxy-2-methylquinolin-6-yl)-3-{3-[3-(4-methoxy-2-methylquinolin-6-yl)ureido]phenyl}urea] | 750 nM | 2.5 °C |
| Cc1cc(N)c2cc(NC(=O)c3cccc(C(=O)Nc4ccc5nc(C)cc(N)c5c4)c3)ccc2n1 [Example 6, N,N′-bis(4-amino-2-methylquinolin-6-yl)-isophthalamide] | 310 nM | 16 °C |
